Results reported in publication PMC6754133 (PLoS ONE, 2019).
Read-outs that look alike come from different tables or passages of the source.

Key:
Hh/SMO pathway = experiment: Gli-Luciferase functional assay, NIH 3T3 Gli-RE cells stimulated with ShhN; format: cell-based
Description: After 24 hours, when the cells reached confluency, the culture medium was replaced with 80 μL per well of assay medium [Optimem ± 10 mM HEPES ± 1 mM Sodium Pyruvate + 1× MEM NEAA]. […] Then the cells were stimulated by addition of either ShhN-conditioned media or control media (DMEM±10%BCS) at a final concentration of 10%. Following incubation of the plate for at least 28 hours at 37°C, the cells were simultaneously lysed and supplemented with a luciferase substrate by addition of equal volume of Steady-Glo reagent (Promega, E2520) directly to the assay media. Plates were mixed by pipetting, centrifuged to eliminate foam, incubated for 10 minutes, and analyzed using Perkin Elmer Viktor X luminescence plate reader. The results were analyzed using a non-linear regression (Prism 6, GraphPad Software, La Jolla, CA). Data were normalized to the maximal response observed for ShhN-stimulated cells in the same experiment. A sigmoidal-dose response curve was used as a model for data analysis and IC50 value calculation.

MB-PDX cells = experiment: Neurosphere formation assay; format: cell-based, human; conditions: Homo sapiens, 168 h, read-out: Inhibition of NS formation, wells
Description: (§2) The final concentration of test compounds in the wells was 10 μM. Cells were incubated at 37 °C for at least seven days. After incubation percent of wells positive with neural stem cell-derived sphere colonies were calculated for each test condition and compared.

DAOY cells [1] = experiment: Neurosphere formation assay; format: cell-based, human; conditions: Homo sapiens, Daoy, 168 h, read-out: Inhibition of NS formation, wells
Description: as §2

[2] = test system: nuclear Gli-1 in DAOY cells; experiment: Western blot quantitation of nuclear Gli-1; format: cell-based, human; conditions: NS conditions, 24-hour treatment, 5 μM (Fig 6f, S4 Fig)
Description: (§1) Nuclear fractions were prepared from cell pellets according to the method of Schreiber et. al.[81] with minor modifications. […] After 24 hours, cells were lifted from the wells by pipetting, transferred to 1.5 mL Eppendorf tubes, centrifuged at 10,000 x g for 1 minutes at 4°C, and washed once in PBS. Following supernatant removal by vacuum, cells were lysed using a plasma membrane lysis buffer [10 mM HEPES; pH 7.5, 10 mM KCl, 0.1 mM EDTA, 1 mM dithiothreitol (DTT), 0.5% Nonidet P‐40 and 0.5 mM PMSF along with 1× protease inhibitor cocktail (Sigma)] and allowed to swell on ice for 15‐20 min with intermittent mixing. Next, tubes were vortexed to disrupt cell membranes and then centrifuged at 12,000 × g at 4°C for 10 min. […] The pelleted nuclei were washed with the plasma membrane lysis buffer and re-suspended in the nuclear extraction buffer [20 mM HEPES (pH 7.5), 400 mM NaCl, 1 mM EDTA, 1 mM DTT, 1 mM PMSF with 1× protease inhibitor cocktail] and incubated on ice for 30 min. The tubes were centrifuged at 12,000 ×g for 25 min at 4°C and the supernatant (now containing the soluble fraction of the cell nuclei) was collected. Total protein concentrations were determined using the Bio-Rad Protein Assay (Bio-Rad, Hercules, CA). Nuclear extracts containing the total of 40 μg protein were separated on a 10% Tris-SDS PAGE gel (Bio-Rad Mini-PROTEAN® TGX). Gels were transferred on nitrocellulose membranes using Bio-Rad TransBlot system, after which the membranes were blocked in the blocking buffer [5% nonfat dry milk in 1× Tris Buffer Saline + 0.1% Tween 20 (TBST)] for 2 hours at room temperature. Following blocking, the membranes were washed four times with TBST (5 minutes gentle rocking per wash) and incubated overnight with primary antibody Rabbit anti-Gli-1 (Cell signaling, #C68H3); 1:250 dilution in TBST-Milk at 4°C with gentle rocking. Membranes were washed three times with TBST for 5 min each.

[3] = test system: nuclear Gli-1 in MB-PDX cells; experiment: Western blot quantitation of nuclear Gli-1; format: cell-based, human; conditions: NS conditions, 24-hour treatment, 5 μM (Fig 6f, S4 Fig)
Description: as §1

MB-PDX xenograft = experiment: Subcutaneous patient-derived medulloblastoma xenograft model, tumor volume; format: in vivo, mouse; conditions: NSG mice, 40 mg/kg daily intraperitoneally from day 7, 42 days
Description: Tumor volumes were monitored three times a week in the course of treatment.
NSG mice, 4–6 weeks old, were injected subcutaneously at shoulders and flanks with 1 × 10^6 viable MB-PDX cells in 1:1 HBSS and gelatinous protein mixture Matrigel. […] The tumor size was measured three times a week with a caliper, and tumor volumes were calculated according to the formula (length × width × width × 0.5). At day 42 post-grafting, all mice were euthanized by isoflurane inhalation and cervical dislocation.

Gli-1 mRNA = experiment: qRT-PCR of Gli-1 mRNA in MB-PDX xenograft tumors; format: in vivo, mouse
Description: NSG mice, 4–6 weeks old, were injected subcutaneously at shoulders and flanks with 1 × 10^6 viable MB-PDX cells in 1:1 HBSS and gelatinous protein mixture Matrigel. […] The tumor size was measured three times a week with a caliper, and tumor volumes were calculated according to the formula (length × width × width × 0.5). At day 42 post-grafting, all mice were euthanized by isoflurane inhalation and cervical dislocation. Tumors were harvested and stored for qRT-PCR analysis.
Both post-vivo MB-PDX cells and Math1-Cre; ptch1-flox/flox cells were analyzed for Gli-1 mRNA expression. For that, total RNA was extracted from dissociated single cells using QIAGEN RNease Mini Kit and cDNA was prepared using 1μg RNA with iScript cDNA Synthesis Kit (Bio-Rad). SYBR green-based QPCR was performed using murine primers listed as below (GLI1, Forward 5’- [sequence]-3’, Reverse 5’-[sequence]-3’, GAPDH Forward 5'-[sequence] -3', Reverse 5'-[sequence]-3'). mRNA levels were normalized to GAPDH (dCt = Ct gene of interest–Ct GAPDH) and reported as relative mRNA expression (ddCt = 2-^(dCt sample–dCt control)) in fold change.

[4] = test system: Gli-target genes in MB-PDX cells; experiment: qRT-PCR of Gli-target genes in MB-PDX cells in vitro; format: cell-based, human; conditions: 10 uM in-vitro, 24 hours
Excerpt: The results from three independent replicates were used for quantitative analysis and are represented in Fig 7c.
Y-axes show the relative expression levels of mRNA of target genes with respect to mRNA of GAPDH gene.

DAOY cells [5] = experiment: cells; conditions: Homo sapiens, 72 h, read-out: Cell viability assay IC50
[6] = cited from earlier work
[7] = test system: Mast/stem cell growth factor receptor Kit (KIT_HUMAN); set-up: method as in earlier work; conditions: S2/S3 Table; ref [1] Davis MI et al., Nat Biotechnol. 2011; cited from earlier work
[8] = test system: Platelet-derived growth factor receptor beta (PGFRB_HUMAN); set-up: method as in earlier work; conditions: S2/S3 Table; ref [1] Davis MI et al., Nat Biotechnol. 2011; cited from earlier work
[9] = test system: Platelet-derived growth factor receptor alpha (PGFRA_HUMAN); set-up: method as in earlier work; conditions: S2/S3 Table; ref [1] Davis MI et al., Nat Biotechnol. 2011; cited from earlier work
[10] = target: Mitogen-activated protein kinase MLT (MLTK_HUMAN); set-up: method as in earlier work; conditions: S3 Table; ref [1] Davis MI et al., Nat Biotechnol. 2011; cited from earlier work
[11] = target: Abelson tyrosine-protein kinase 2 (ABL2_HUMAN); conditions: S2/S3 Table; ref [1] Davis MI et al., Nat Biotechnol. 2011; cited from earlier work
[12] = target: Carbonic anhydrase 1 (CAH1_HUMAN); conditions: S2/S3 Table; ref [2] Parkkila S et al., Bioorg Med Chem Lett. 2009; cited from earlier work
[13] = target: Carbonic anhydrase 9 (CAH9_HUMAN); conditions: S2/S3 Table; ref [2] Parkkila S et al., Bioorg Med Chem Lett. 2009; cited from earlier work

Cc1cn(-c2cc(NC(=O)c3ccc(C)c(Nc4nccc(-c5cccnc5)n4)c3)cc(C(F)(F)F)c2)cn1 [Nilotinib]
IC50 (Hh/SMO pathway; Mus musculus, NIH3T3, read-out: Hh/SMO pathway inhibition IC50, NIH3T3 Gli-RE cells, ShhN-conditioned media, n = 3): 374 nM
Inhibition of ShhN-induced Hh signaling (in words) (Hh/SMO pathway; NIH 3T3 Gli-RE cells, ShhN stimulated): inhibited ShhN-induced Hh signaling in a dose-dependent manner
Span of concentration response curve (Hh/SMO pathway; data as percent of the maximum luminescence in the absence of antagonists, Fig 4): 95.05
IC50 (Hh/SMO pathway; read-out: Hh/SMO pathway inhibition IC50, NIH3T3 Gli-RE cells, ShhN-conditioned media, n = 3): 374 nM
inhibition at 10 µM (MB-PDX cells): > 90%
inhibition at 10 µM (DAOY cells [1]): > 90%
Nuclear Gli-1, mean, % of untreated samples [2]: 46%
Nuclear Gli-1, mean, % of untreated samples [3]: 41%
Tumor volume versus vehicle-treated group (MB-PDX xenograft): significantly smaller tumors
Gli-1 mRNA expression in tumors versus vehicle (Gli-1 mRNA): significant reduction in the Gli-1 mRNA expression levels
mRNA expression of Gli-target genes [4]: decreased expression of GLI1, NMYC, HHIP and BCL2 genes
IC50 (DAOY cells [5]): 6000 nM
Trough concentration, Cmin ([6]; clinically achievable concentrations): 1600 to 2600 nM
Average Cmin ([6]; human plasma): 2600 nM
Cmax ([6]; human plasma): 3300 nM
Trough concentration (Cmin) in human plasma ([6]; standard dosing of 400 mg twice daily): 1650 to 2380 nM
Kd/Ki Value [7]: 29 nM
Kd/Ki Value [8]: 73 nM
Kd/Ki Value [9]: 180 nM
Kd/Ki Value [10]: 11 nM
Kd/Ki Value [11]: 26 nM
Kd/Ki Value [12]: 29.3 nM
Kd/Ki Value [13]: 41.9 nM
